Assays:
[1] = test system: H226; assay: Anti-proliferation assay in H226 cells; format: cell-based; settings: Homo sapiens, NCI-H226; H226 cells; read-out: H226 EC50
Method: (§1) Certain compounds were tested in TEAD reporter assay, and in H226 and H28. A: EC50<0.1 uM; B: 0.1 uM≤EC50≤0.5 uM; C: EC50>0.5 uM.
Individual cell lines were grown in medium according to supplier instructions and seeded into 96-well plates at a density that ensured logarithmic growth over 72 hours. TEAD inhibitor compounds were administered to cells at a top concentration of 10 μm and subsequently a 10 point 3-fold serial dilution was conducted. After 72 hours, proliferation was quantified using Cell TITERGLO™ (Promega, Inc.) and compared to vehicle control. IC50 and EC50 values were generated using XLFit curve fitting software.

[2] = test system: TEAD; assay: TEAD reporter assay (Hippo Pathway TEAD Reporter - MCF7 cell line, luciferase); format: cell-based; settings: Homo sapiens; TEAD Reporter - MCF7 cells; read-out: TEAD Reporter Assay EC50
Text: TEAD inhibition can be assayed using Hippo Pathway TEAD Reporter—MCF7 Cell Line (BPS Bioscience, Catalog #: 60618).
The TEAD Reporter—MCF7 cell line contains the firefly luciferase gene under the control of TEAD responsive elements stably integrated into the human breast cancer cell line, MCF7. Inside the cells, basal unphosphorylated YAP/TAZ remains in the nucleus and induces the constitutive expression of luciferase reporter. The cell line is validated for the inhibition of the expression of luciferase reporter by the activators of the Hippo pathway.
• 1) Harvest TEAD Reporter—MCF7 cells from culture in growth medium and seed cells at a density of 35,000 cells per well into white clear-bottom 96-well microplate in 45 μl of assay medium. • 2) Incubate cells at 37° C. in a CO2 incubator for overnight. • 3) Dilute the activators (H2O2 or okadaic acid) stock in assay medium. Add 5 μl of diluted activators to the wells. The final concentration of DMSO in assay medium is 0.1%. • 4) Add 5 μl of assay medium with same concentration of DMSO without activator to control wells. • 5) Add 50 μl of assay medium with DMSO to cell-free control wells (for determining background luminescence). • 6) Set up each treatment in at least triplicate. • 7) Incubate cells at 37° C. in a CO2 incubator for 5-6 hours. • 8) Perform luciferase assay using the ONE-Step™ Luciferase Assay System following the protocol provided: Add 100 μl of ONE-Step™ Luciferase reagent per well and rock at room temperature for ˜15 minutes. Measure luminescence using a luminometer. • 9) Data Analysis: Obtain the background-subtracted luminescence by subtracting the average background luminescence (cell-free control wells) from the luminescence reading of all wells.
as §1

| SMILES | EC50 [1] | EC50 [2] |
| --- | --- | --- |
| CNS(=O)(=O)c1ccc(NCc2ccc(OC(F)(F)F)cc2)c(-c2cn(C)cn2)c1 [I-60, N-Methyl-3-(1-methyl-1H-imidazol-4-yl)-4-((4-(trifluoromethoxy)benzyl)amino)benzenesulfonamide] | 100 to 500 nM | 100 to 500 nM |
| CNS(=O)(=O)c1ccc(NCc2ccccc2)c(-c2nnc(C)o2)c1 [I-61, 4-(Benzylamino)-N-methyl-3-(5-methyl-1,3,4-oxadiazol-2-yl)benzenesulfonamide] | 100 to 500 nM | > 500 nM |
| CNS(=O)(=O)c1ccc(Nc2cc(C(F)(F)F)ccn2)c(-c2nnc(C)o2)c1 [I-62, N-Methyl-3-(5-methyl-1,3,4-oxadiazol-2-yl)-4-[[4-(trifluoromethyl)-2-pyridyl]amino]benzenesulfonamide] | 100 to 500 nM | 100 to 500 nM |
| CNS(=O)(=O)c1ccc(N[C@H](C)c2cccc(C(F)(F)F)c2)c(-c2cn(C)cn2)c1 [I-63, N-Methyl-3-(1-methylimidazol-4-yl)-4-[[(1R)-1-[3-(trifluoromethyl)phenyl]ethyl]amino]benzenesulfonamide] | 100 to 500 nM | 100 to 500 nM |
| CNS(=O)(=O)c1ccc(NCc2ccc3c(c2)OCO3)c(-c2cn(C)cn2)c1 [I-64, 4-(1,3-Benzodioxol-5-ylmethylamino)-N-methyl-3-(1-methylimidazol-4-yl)benzenesulfonamide] | 100 to 500 nM | 100 to 500 nM |
| CCNS(=O)(=O)c1ccc(Nc2ccc(C(F)(F)F)cn2)c(-c2cn(C)cn2)c1 [I-65, N-ethyl-3-(1-methylimidazol-4-yl)-4-[[5-(trifluoromethyl)-2-pyridyl]amino]benzenesulfonamide] | < 100 nM | < 100 nM |
| CC(C)NS(=O)(=O)c1ccc(Nc2cc(C(F)(F)F)ccn2)c(-c2cn(C)cn2)c1 [I-66, N-Isopropyl-3-(1-methylimidazol-4-yl)-4-[[4-(trifluoromethyl)-2-pyridyl]amino]benzenesulfonamide] | 100 to 500 nM | > 500 nM |
| CNS(=O)(=O)c1ccc(Nc2ccc(C(F)(F)F)cn2)c(-c2cn(C3CCC3)cn2)c1 [I-67, 3-(1-Cyclobutylimidazol-4-yl)-N-methyl-4-[[5-(trifluoromethyl)-2-pyridyl]amino]benzenesulfonamide] | < 100 nM | < 100 nM |
| CNS(=O)(=O)c1ccc(NCc2ccc(C(F)(F)F)cc2F)c(-c2cn(C)cn2)c1 [I-68, 4-[[2-Fluoro-4-(trifluoromethyl)phenyl]methylamino]-N-methyl-3-(1-methylimidazol-4-yl)benzenesulfonamide] | < 100 nM | < 100 nM |
| CNS(=O)(=O)c1ccc(NCc2cccc(OC(F)(F)F)c2)c(-c2cn(C)cn2)c1 [I-69, A-Methyl-3-(1-methylimidazol-4-yl)-4-[[3-(trifluoromethoxy)phenyl]methylamino]benzenesulfonamide] | < 100 nM | 100 to 500 nM |
| CNS(=O)(=O)c1ccc(NCc2ccc(C(F)(F)F)cn2)c(-c2cn(C)cn2)c1 [I-70, N-Methyl-3-(1-methylimidazol-4-yl)-4-[[5-(trifluoromethyl)-2-pyridyl]methylamino]benzenesulfonamide] | < 100 nM | 100 to 500 nM |
| CNS(=O)(=O)c1ccc(Nc2ccc(C(F)(F)F)cn2)c(-c2cn(Cc3ccccc3)cn2)c1 [I-71, 3-(1-Benzylimidazol-4-yl)-N-methyl-4-[[5-(trifluoromethyl)-2-pyridyl]amino]benzenesulfonamide] | 100 to 500 nM | 100 to 500 nM |
| CNS(=O)(=O)c1ccc(NCc2ccc3scnc3c2)c(-c2cn(C)cn2)c1 [I-72, 4-(1,3-Benzothiazol-5-ylmethylamino)-N-methyl-3-(1-methylimidazol-4-yl)benzenesulfonamide] | 100 to 500 nM | < 100 nM |
| CNS(=O)(=O)c1ccc(NCc2ccc3ncsc3c2)c(-c2cn(C)cn2)c1 [I-73, 4-(1,3-Benzothiazol-6-ylmethylamino)-N-methyl-3-(1-methylimidazol-4-yl)benzenesulfonamide] | 100 to 500 nM | > 500 nM |
| CNS(=O)(=O)c1ccc(NCc2ccccc2C(F)(F)F)c(-c2cn(C)cn2)c1 [I-74, N-Methyl-3-(1-methylimidazol-4-yl)-4-[[2-(trifluoromethyl)phenyl]methylamino]benzenesulfonamide] | < 100 nM | < 100 nM |
| CNS(=O)(=O)c1ccc(Nc2ccc(C(F)(F)F)nc2)c(-c2cn(C)cn2)c1 [I-75, N-Methyl-3-(1-methylimidazol-4-yl)-4-[[6-(trifluoromethyl)-3-pyridyl]amino]benzenesulfonamide] | < 100 nM | < 100 nM |
| CNS(=O)(=O)c1ccc(NCc2ccc(C(F)(F)F)nc2)c(-c2cn(C)cn2)c1 [I-76, N-Methyl-3-(1-methyl-1H-imidazol-4-yl)-4-(((6-(trifluoromethyl)pyridin-3-yl)methyl)amino)benzenesulfonamide] | 100 to 500 nM | > 500 nM |
| CNS(=O)(=O)c1ccc(Nc2ccc(C(F)(F)F)nn2)c(-c2cn(C)cn2)c1 [I-77, N-Methyl-3-(1-methylimidazol-4-yl)-4-[[6-(trifluoromethyl)pyridazin-3-yl]amino]benzenesulfonamide] | 100 to 500 nM | > 500 nM |
| CNS(=O)(=O)c1ccc(Nc2ncc(C(F)(F)F)cn2)c(-c2cn(C)cn2)c1 [I-78, N-Methyl-3-(1-methylimidazol-4-yl)-4-[[5-(trifluoromethyl)pyrimidin-2-yl]amino]benzenesulfonamide] | < 100 nM | < 100 nM |
| CNS(=O)(=O)c1ccc(Nc2ccc(C3CC3)cn2)c(-c2cn(C)cn2)c1 [I-79, 4-[(5-Cyclopropyl-2-pyridyl)amino]-N-methyl-3-(1-methylimidazol-4-yl)benzenesulfonamide] | < 100 nM | 100 to 500 nM |
| CNS(=O)(=O)c1ccc(Nc2ccc(C(C)(C)C)cn2)c(-c2cn(C)cn2)c1 [I-80, 4-[(5-tert-Butyl-2-pyridyl)amino]-N-methyl-3-(1-methylimidazol-4-yl)benzenesulfonamide] | < 100 nM | < 100 nM |
| CNS(=O)(=O)c1ccc(Nc2ccc(C(F)(F)F)cn2)c(-c2cn(Cc3ccccc3F)cn2)c1 [I-81, 3-[1-[(2-Fluorophenyl)methyl]imidazol-4-yl]-N-methyl-4-[[5-(trifluoromethyl)-2-pyridyl]amino]benzenesulfonamide] | < 100 nM | < 100 nM |
| CNS(=O)(=O)c1ccc(Nc2ccc(C(F)(F)F)cc2)c(-c2cn(C)cn2)c1 [I-82, N-Methyl-3-(1-methyl-1H-imidazol-4-yl)-4-((4-(trifluoromethyl)phenyl)amino)benzenesulfonamide] | < 100 nM | < 100 nM |
| CNS(=O)(=O)c1ccc(N[C@@H](C)c2cccc(C(F)(F)F)c2)c(-c2cn(C)cn2)c1 [I-83, N-Methyl-3-(1-methylimidazol-4-yl)-4-[[(1S)-1-[3-(trifluoromethyl)phenyl]ethyl]amino]benzenesulfonamide] | < 100 nM | 100 to 500 nM |
| CNS(=O)(=O)c1ccc(Nc2ccc(OC(F)(F)F)cn2)c(-c2cn(C)cn2)c1 [I-84, N-Methyl-3-(1-methylimidazol-4-yl)-4-[[5-(trifluoromethoxy)-2-pyridyl]amino]benzenesulfonamide] | < 100 nM | < 100 nM |
| CNS(=O)(=O)c1ccc(Nc2ccc(C(F)(F)F)cn2)c(-c2cn(C(C)C)cn2)c1 [I-85, 3-(1-isopropylimidazol-4-yl)-N-methyl-4-[[5-(trifluoromethyl)-2-pyridyl]amino]benzenesulfonamide] | < 100 nM | < 100 nM |
| CNS(=O)(=O)c1ccc(Nc2ccc(C#N)cn2)c(-c2cn(C)cn2)c1 [I-86, 4-[(5-Cyano-2-pyridyl)amino]-N-methyl-3-(1-methylimidazol-4-yl)benzenesulfonamide] | 100 to 500 nM | > 500 nM |
